GI50 and TGI data for 8 compounds are collected here from PubChem BioAssay (NCI).

Each structure is given as a SMILES string.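 In this assay, cells in 96-well plates receive the compound at five concentrations for 48 hours. Endpoints are linearly interpolated between the surrounding concentrations. GI50 marks 50% less growth. TGI: concentration producing complete growth inhibition.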

What all share (assay): inhibition of tumour cell growth, NCI panel, 48 h
The subject of assay [1] is A498 renal.
Assay [2] deals with U251 CNS.
In assay [3] the test system is RXF 393 renal.
For assay [4], the system named is 786-0 renal.
The test system of assay [5] is NCI-H460 lung.
Assay [6] has as its system HT29 colon.
For assay [7], the system named is SK-OV-3 ovarian.
The subject of assay [8] is PC-3 prostate.
Assay [9] concerns MOLT-4 leukemia.
For assay [10], the system named is OVCAR-3 ovarian.

Regarding `COc1ccc2cc(C(=O)/C=C/c3cccc(Cl)c3Cl)ccc2c1`, the GI50 is 18.1 µM in assay [1]; 6.19 µM in [2]; 2.79 µM in [3]; 6.08 µM in assay [4]; 10.1 µM in assay [5]; 7.33 µM in assay [6]. Further, the GI50 in assay [7] was 24.7 µM; in [8] it was 12.4 µM; in assay [9] it was 27.5 µM; in assay [10] it was 7.87 µM. Moreover, the TGI in assay [1] was 32.1 µM; in assay [2], 65.3 µM; in assay [3], 12.4 µM; in [4], greater than 41.5 µM; in assay [5] it was greater than 100 µM; in assay [6] it was greater than 64.2 µM. For the same compound, the TGI in assay [7] was greater than 62.4 µM; in assay [8], greater than 81.9 µM; in assay [9], greater than 100 µM; in assay [10], 30.1 µM.
Consider `NC(=O)c1[nH]nc(C2OC(CO)C(O)C2O)c1O` (stereo not drawn), for which the TGI is 444 µM in assay [1]; 4010 µM in [2]; 551 µM in assay [3]; greater than 2870 µM in assay [4]; 415 µM in [5]; 3420 µM in [6]. Further, the TGI in assay [7] stood at 460 µM; in assay [8] it was 794 µM; in assay [9], 386 µM; in [10], 424 µM.
Regarding `COC(=O)[C@]12CC[C@@H](C)[C@H](C)[C@@H]1C1=CC[C@@H]3[C@@]4(C)C(C=O)=C[C@@](C)(COC(C)=O)[C@@H]4[C@H](O)C[C@@]3(C)[C@]1(C)CC2`, the GI50 in assay [1] was 2.6 µM; in [2], 1.92 µM; in [3], 1.56 µM; in assay [4] it was 1.89 µM; in assay [5], 1.89 µM; in [6], 1.92 µM. Also, the GI50 in assay [7] is 4.35 µM; in [8], 1.73 µM; in [9], 1.34 µM; in assay [10], 1.82 µM. Moreover, the TGI turned out to be 10.2 µM in [1]; 4.36 µM in [2]; 3.03 µM in [3]; 4.26 µM in assay [4]; 3.9 µM in assay [5]; 3.97 µM in assay [6]. For the same compound, the TGI is 16.1 µM in [7], 5.74 µM in assay [8], 5.02 µM in assay [9] and 3.34 µM in assay [10].
For `CC(CN)[C@@H]1CC[C@]2(CO)CC[C@]3(C)[C@H](CC[C@@H]4[C@@]5(C)CCC(NCCO)C(C)(C)[C@@H]5CC[C@]43C)[C@@H]12` (stereo partly drawn), the GI50 in [1] is 11 µM; in assay [2], 1.6 µM; in assay [3], 1.51 µM; in assay [4] it was 1.55 µM; in assay [5], 1.79 µM; in assay [6] it was 1.62 µM. Further, the GI50 in assay [7] was 12.5 µM; in assay [8], 2.53 µM; in assay [9] it was 1.56 µM; in assay [10], 2.1 µM. The TGI in assay [1] stood at 23.5 µM; in assay [2], 2.95 µM; in assay [3] it was 2.97 µM; in [4] it was 3 µM; in assay [5], 3.43 µM; in assay [6], 3.26 µM. Further, the TGI is 25.2 µM in assay [7], 11.4 µM in [8], 4.28 µM in assay [9] and 4.6 µM in [10].
Regarding `CC(C)(C)OC(=O)NCCCCCCCCn1c2c(c3ccccc3c1=O)C(=O)c1ccccc1-2`, the GI50 is 15.5 µM in [1]; 16.7 µM in [2]; 8.49 µM in assay [3]; 10.8 µM in assay [4]; greater than 50 µM in [5]; greater than 50 µM in assay [6]. For the same compound, the figures for the GI50 in [7], in assay [8] and in assay [9] were 14.4 µM, greater than 50 µM and greater than 50 µM, respectively. The TGI is greater than 47.7 µM in assay [1]; greater than 50 µM in assay [2]; 24.5 µM in [3]; 27.5 µM in [4]; greater than 50 µM in assay [5]; greater than 50 µM in [6]. Moreover, the TGI was greater than 39.4 µM in assay [7], greater than 50 µM in assay [8], greater than 50 µM in assay [9] and greater than 39.4 µM in [10].
In the case of `O=c1cccc(C#Cc2ccccc2)o1`, the GI50 is 2.38 µM in assay [1]; 9.2 µM in [2]; 6.27 µM in assay [3]; 2.2 µM in [4]; 3.91 µM in assay [5]; 14.6 µM in assay [6]. Moreover, the GI50 in [7] is 16.2 µM; in [8], 3.41 µM; in [9], 2.77 µM; in assay [10], 2.42 µM. In addition, the TGI in assay [1] is 7.02 µM; in assay [2] it was greater than 36.4 µM; in [3], 61.6 µM; in [4], 15 µM; in assay [5], greater than 100 µM; in assay [6], greater than 100 µM. Further, the TGI is greater than 44.8 µM in [7], greater than 40.4 µM in assay [8] and 11.1 µM in assay [10].
Take `C/C=C(\C)C(=O)O[C@@H]1C(O)[C@H]2OC(COC(=O)CCC(=O)CCCCCC[C@H](CCCCC)O[C@@H]3OC(C)[C@H](OC(C)=O)C(O)[C@H]3O2)[C@H]1OC(=O)/C=C/c1ccccc1` (stereo partly drawn): the GI50 in [1] was 0.12 µM; in assay [2], less than 0.01 µM; in [3], less than 0.01 µM; in assay [4], 0.028 µM; in assay [5], less than 0.01 µM; in [6] it was less than 0.01 µM. The GI50 in assay [7] was 0.0419 µM; in assay [8], less than 0.0132 µM; in [9], 3.28 µM; in assay [10] it was 0.0284 µM. Further, the TGI is 5.59 µM in [1]; 6.39 µM in assay [2]; 4.99 µM in assay [3]; 7.61 µM in assay [4]; greater than 60.9 µM in assay [5]; 0.652 µM in assay [6]. Moreover, the TGI is 13.3 µM in [7], 16.7 µM in assay [8], greater than 100 µM in [9] and 13.7 µM in assay [10].
`Cc1cc(=O)oc2cc(OC(=O)Nc3ccc(Cl)c(Cl)c3)ccc12`: the TGI was 32.6 µM in assay [1]; 56.8 µM in [2]; 52.3 µM in assay [3]; greater than 100 µM in assay [4]; 89.6 µM in assay [5]; 75.4 µM in [6]. Besides, the TGI in assay [7] is 88.4 µM; in assay [8] it was 68.2 µM; in assay [9] it was 44.4 µM; in assay [10] it was 50.2 µM.
